“And” between values parts separate entries of the source, which are not always exact repeats. Equal values may be shown once. Read-outs that look alike come from different tables or passages of the source.
What was measured:
Format in all cases: cell-based
[1] = tested on: EOC 13.31 microglia cells; experiment: Inhibition of NO release from microglia following 24 hours pretreatment (Example 10); conditions: for inhibition at 50 µM: Microglia
Protocol: This experiment was designed to determine if pretreatment for 24 hours with bis- and tris-dihydroxyaryl compounds changes NO inhibition previously observed with concurrent exposure of bis- and tris-dihydroxyaryl compounds. […] This study seeks to determine if pretreatment with bis- and tris-dihydroxyaryl compounds increases NO release inhibition. EOC 13.31 microglia cells were plated at 1×10^6 cells/ml in 96 well plates. After 48 hours, confluent cells were exposed to 50 μM compound (stock 10 mM in DMSO) prepared in fresh cell culture media. After 24 hours, 10 μg/ml LPS and 10 ng/ml IFNγ was added to wells directly without a media change. Cells were incubated for a further 48 hours and nitric oxide release was measured using the Griess Reaction.

microglia = experiment: Ranking of NO release inhibition (Example 12); conditions: Microglia, ranking table
Text: The bis- and tris-dihydroxyaryl compounds were ranked in order of effectiveness for the inhibition of NO release as set out in Table 8.

[2] = tested on: EOC 13.31 microglia cells; experiment: NO release inhibition in LPS/IFNγ stimulated microglia, concurrent treatment, Griess reaction at 24 hours (Example 6); conditions: for NO release, Avg / inhibition at 50 µM: 24 hours; for inhibition at 50 µM: Microglia
Protocol: The purpose of this experiment was to screen compounds 3, 4, 21, 26, 51, 52, 66, and 78 for their ability to inhibit Nitric oxide release from microglia. […] EOC 13.31 microglia cells were plated into 96 well plates for 24 hours. Confluent cells were treated with 50 μM of the bis- and tris-dihydroxyaryl compounds either with or without stimulation at 1 pg/ml LPS, and 1 ng/ml IFNγ. NO release was measured at 24 hours using the Griess reaction which is a spectrophotometric measure of NO release (reagents from Promega).

Microglial cells = experiment: Dose response inhibition of NO release from microglia, 0.75-200 μM (Example 8)
Protocol: This experiment was designed to determine dose response inhibition of NO release from microglia by bis- and tris-dihydroxyaryl compounds when stimulated with LPS/IFNγ. […] This experiment is designed to determine a dose response for various bis- and tris-dihydroxyaryl compounds. Microglial cells were plated into 96 well plates at 1×10^5 cells/ml. […] The doses tested were: 0.75 μM, 1.56 μM, 3.125 μM, 6.25 μM, 12.5 μM, 25 μM, 50 μM, 100 μM and 200 μM. Nitric oxide release was measured after 48 hours using the Griess reaction.

[3] = 50 uM pretreatment 24 hours, then LPS/IFNγ 48 hours, single replicates
[4] = 50 uM pretreatment 24 hours, then LPS/IFNγ 48 hours, read-out: Avg % Inhibition
[5] = 50 uM pretreatment 24 hours, then LPS/IFNγ 48 hours, single replicates, read-out: % inhibition
[6] = Compound Only (without LPS/IFNγ), 50 μM
[7] = Compound + LPS/IFNγ, read-out: % inhibition of NO release
[8] = Table 2 summary, LPS/IFNγ, read-out: % Inhibition (summary of inhibition of NO release)
[9] = dose 0.75 μM, 48 hours, single replicates
[10] = dose 1.56 μM, 48 hours, single replicates
[11] = dose 3.125 μM, 48 hours, single replicates
[12] = dose 6.25 μM, 48 hours, single replicates
[13] = dose 12.5 μM, 48 hours, single replicates
[14] = dose 25 μM, 48 hours, single replicates
[15] = dose 50 μM, 48 hours, single replicates
[16] = dose 100 μM, 48 hours, single replicates
[17] = dose 200 μM, 48 hours, single replicates

`Oc1ccc(CCc2ccc(O)c(O)c2)cc1O` [Compound 4, 1,2-bis(3,4-dihydroxyphenyl)ethane] was tested, and the “μM NO release” value [1, 3] was 0.000 µM, the inhibition at 50 µM [1, 4] was 100% and the inhibition at 50 µM [1, 5] was 100%. For the same compound, the inhibition at 50 µM ([1]; 50 μM pretreatment, read-out: inhibition of NO release following pretreatment) was > 75%, the inhibition at 50 µM (microglia) was 94% and the “inhibition of NO release, in words” value ([2]; 50 μM, LPS/IFNγ stimulated microglial cells) was “very effective inhibitors of NO release”. The “NO release, Avg” value ([2]; Compound + LPS/IFNγ, 50 μM) was 1.0417 µM, the “NO release, Avg” value [2, 6] was 0.8660 µM and the inhibition at 50 µM [2, 7] was 94.4%. The inhibition at 50 µM [2, 8] was 94.4%, the inhibition at 0.75 µM (Microglial cells; Microglia, 48 h, dose 0.75 μM) was -11.1% and the inhibition at 1.56 µM (Microglial cells; Microglia, 48 h, dose 1.56 μM) was 2.52%. It also gave an inhibition at 3.125 µM (Microglial cells; Microglia, 48 h, dose 3.125 μM) of 6.14%, an inhibition at 6.25 µM (Microglial cells; Microglia, 48 h, dose 6.25 μM, 48 hours, read-out: Avg % Inhibition) of 36.2% and an inhibition at 6.25 µM (Microglial cells; Microglia, 48 h, dose 6.25 μM, 48 hours, single replicates, read-out: % inhibition) of 42.2%. The inhibition at 12.5 µM (Microglial cells; Microglia, 48 h, dose 12.5 μM, 48 hours, read-out: Avg % Inhibition) was 82.7%, the inhibition at 12.5 µM (Microglial cells; Microglia, 48 h, dose 12.5 μM, 48 hours, single replicates, read-out: % inhibition) was 85.1% and the inhibition at 25 µM (Microglial cells; Microglia, 48 h, dose 25 μM, 48 hours, read-out: Avg % Inhibition) was 86.2%. The inhibition at 25 µM (Microglial cells; Microglia, 48 h, dose 25 μM, 48 hours, single replicates, read-out: % inhibition) was 85.6%, the inhibition at 50 µM (Microglial cells; Microglia, 48 h, dose 50 μM, 48 hours, read-out: Avg % Inhibition) was 86.5% and the inhibition at 50 µM (Microglial cells; Microglia, 48 h, dose 50 μM, 48 hours, single replicates, read-out: % inhibition) was 87.2%. It also gave an inhibition at 100 µM (Microglial cells; Microglia, 48 h, dose 100 μM, 48 hours, read-out: Avg % Inhibition) of 82.2%, an inhibition at 100 µM (Microglial cells; Microglia, 48 h, dose 100 μM, 48 hours, single replicates, read-out: % inhibition) of 83% and an inhibition at 200 µM (Microglial cells; Microglia, 48 h, dose 200 μM, 48 hours, read-out: Avg % Inhibition) of 75%. The inhibition at 200 µM (Microglial cells; Microglia, 48 h, dose 200 μM, 48 hours, single replicates, read-out: % inhibition) was 77.4%, the “μM NO release Avg” value (Microglial cells; dose 0.75 μM, 48 hours) was 27.011 µM and the “% inhibition” value (Microglial cells; [9]) was −8.45% and −9.87% and −14.83%. For the same compound, the “OD values (printed under head μM NO release)” value (Microglial cells; [9]) was 0.229 and 0.22 and 0.222, the “μM NO release” value (Microglial cells; [9]) was 27.931 µM and 26.379 µM and 26.724 µM and the “μM NO release Avg” value (Microglial cells; dose 1.56 μM, 48 hours) was 23.709 µM. The “% inhibition” value (Microglial cells; [10]) was 6.85% and 4.93% and −4.20%, the “OD values (printed under head μM NO release)” value (Microglial cells; [10]) was 0.214 and 0.197 and 0.2 and the “μM NO release” value (Microglial cells; [10]) was 25.345 µM and 22.656 µM and 23.125 µM. For the same compound, the “μM NO release Avg” value (Microglial cells; dose 3.125 μM, 48 hours) was 22.829 µM, the “% inhibition” value (Microglial cells; [11]) was 12.63% and 10.71% and −4.91% and the “OD values (printed under head μM NO release)” value (Microglial cells; [11]) was 0.215 and 0.188 and 0.191. For the same compound, the “μM NO release” value (Microglial cells; [11]) was 25.517 µM and 21.250 µM and 21.719 µM, the “μM NO release Avg” value (Microglial cells; dose 6.25 μM, 48 hours) was 15.521 µM and the “% inhibition” value (Microglial cells; [12]) was 40.26% and 26.12%. The “OD values (printed under head μM NO release)” value (Microglial cells; [12]) was 0.167 and 0.142 and 0.145, the “μM NO release” value (Microglial cells; [12]) was 17.969 µM and 14.063 µM and 14.531 µM and the μM NO release Avg (Microglial cells; dose 12.5 μM, 48 hours) was 4.21 µM. For the same compound, the “% inhibition” value (Microglial cells; [13]) was 84.07% and 78.93%, the “OD values (printed under head μM NO release)” value (Microglial cells; [13]) was 0.083 and 0.071 and 0.073 and the “μM NO release” value (Microglial cells; [13]) was 5.125 µM and 3.625 µM and 3.875 µM. For the same compound, the “μM NO release Avg” value (Microglial cells; dose 25 μM, 48 hours) was 3.357 µM, the “% inhibition” value (Microglial cells; [14]) was 87.89% and the “OD values (printed under head μM NO release)” value (Microglial cells; [14]) was 0.071 and 0.07 and 0.064. For the same compound, the “μM NO release” value (Microglial cells; [14]) was 3.625 µM and 3.500 µM and 2.947 µM, the “μM NO release Avg” value (Microglial cells; dose 50 μM, 48 hours) was 3.292 µM and the “OD values (printed under head μM NO release)” value (Microglial cells; [15]) was 0.071 and 0.067 (2×). For the same compound, the “μM NO release” value (Microglial cells; [15]) was 3.625 μM and 3.125 μM (2×), the “μM NO release Avg” value (Microglial cells; dose 100 μM, 48 hours) was 4.333 µM and the “% inhibition” value (Microglial cells; [16]) was 82.01% and 81.50%. The “OD values (printed under head μM NO release)” value (Microglial cells; [16]) was 0.078 and 0.075 and 0.077, the “μM NO release” value (Microglial cells; [16]) was 4.500 µM and 4.125 µM and 4.375 µM and the “Avg % Inhibition” value (Microglial cells; dose 200 μM, 48 hours) was 75.332%. For the same compound, the “μM NO release Avg” value (Microglial cells; dose 200 μM, 48 hours) was 6.000 µM, the “% inhibition” value (Microglial cells; [17]) was 74.30% and the “OD values (printed under head μM NO release)” value (Microglial cells; [17]) was 0.092 (2×) and 0.086. For the same compound, the “μM NO release” value (Microglial cells; [17]) was 6.250 μM (2×) and 5.500 μM and the “inhibition of NO release, in words” value (Microglial cells; dose response 0.75-200 μM) was “effective inhibitors of NO release”.
For `O=C(CCC(=O)Nc1ccc(O)c(O)c1)Nc1ccc(O)c(O)c1` [Compound 66, succinic acid bis(3,4-dihydroxyanilide)], the “% inhibition” value [1, 3] was 59.20% and 65.21%, the inhibition at 50 µM [1, 4] was 64.3% and the inhibition at 50 µM [1, 5] was 68.4%. The inhibition at 50 µM (microglia) was 17%, the “NO release, Avg” value ([2]; Compound + LPS/IFNγ, 50 μM) was 15.4762 µM and the “NO release, Avg” value [2, 6] was 0.8333 µM. The inhibition at 50 µM [2, 7] was 16.9% and the inhibition at 50 µM [2, 8] was 16.9%.
With `O=C(NCCc1ccc(O)c(O)c1)Nc1ccc(O)c(O)c1` [Compound 78, 1-(3,4-dihydroxyphenyl)-3-(3,4-dihydroxyphenethyl)urea] the “% inhibition” value [1, 3] was 57.93% and 69.00%, the inhibition at 50 µM [1, 4] was 65.5% and the inhibition at 50 µM [1, 5] was 69.6%. The inhibition at 50 µM (microglia) was -1%, the “NO release, Avg” value ([2]; Compound + LPS/IFNγ, 50 μM) was 18.7925 µM and the “NO release, Avg” value [2, 6] was 1.1667 µM. The inhibition at 50 µM [2, 7] was -0.9% and the inhibition at 50 µM [2, 8] was -0.9%.

Reference: patent US20070208087A1, “Compounds, compositions and methods for the treatment of inflammatory diseases” (priority 2001, published 2007)
